The results in this text go back to patent US8518931B2, “Compounds and compositions as kinase inhibitors” (IRM LLC, priority 2008, dated 2013).

The assay has as its target T1, NPM-ALK (Homo sapiens, UniProt Q9UM73).
T1 construct: nucleophosmin (NPM, NPM1; human P06748) fusion partner; expressed in transfected cells; host or cells: murine BaF3 cells (DSMZ), transfected with pCIneo (Promega) coding for NPM-ALK and selected with G418; the other entry of the earlier key: Npm1 (Q61937, Nucleophosmin)
As to the kind of experiment: NPM-ALK BaF3 assay (growth inhibition of BaF3-NPM-ALK cells). The format is cell-based. The following applies: human NPM-ALK overexpressing murine BaF3 cells. From the text: The expression of NPM-ALK may be achieved by transfecting the BaF3 cell line with an expression vector pClneo™ (Promega Corp., Madison Wis., USA) coding for NPM-ALK and subsequent selection of G418 resistant cells. Non-transfected BaF3 cells depend on IL-3 for cell survival. In contrast, NPM-ALK expressing BaF3 cells (named BaF3-NPM-ALK hereinafter) can proliferate in the absence of IL-3 because they obtain proliferative signal through NPM-ALK kinase. Putative inhibitors of the NPM-ALK kinase therefore abolish the growth signal and may result in antiproliferative activity. The antiproliferative activity of putative inhibitors of the NPM-ALK kinase can however be overcome by addition of IL-3, which provides growth signals through an NPM-ALK independent mechanism. An analogous cell system using FLT3 kinase has also been described (see, E Weisberg et al. Cancer Cell; 1, 433-443 (2002)).
The inhibitory activity of the compounds of the invention may be determined as follows. In general, BaF3-NPM-ALK cells (15,000/microtitre plate well) are transferred to 96-well microtitre plates. Test compounds dissolved in dimethyl sulfoxide (DMSO) are added in a series of concentrations (dilution series) in such a manner that the final concentration of DMSO is not greater than 1% (v/v). After the addition, the plates are incubated for two days during which the control cultures without test compound are able to undergo two cell-division cycles. The growth of the BaF3-NPM-ALK cells is measured by means of YOPRO™ staining [T Idziorek et al. J. Immunol. Methods; 185: 249-258 (1995)]: 25 μl of lysis buffer comprising 20 mM sodium citrate, pH 4.0, 26.8 mM sodium chloride, 0.4% NP40, 20 mM EDTA and […] to each well. Cell lysis is completed within 60 min at room temperature and total amount of YOPRO™ bound to DNA is determined by measurement using the Cytofluor II 96-well reader (PerSeptive Biosystems) with the following settings: Excitation (nm) 485/20 and Emission (nm) 530/25.
IC50 values may be determined by a computer-aided system using the formula: IC50=[(ABStest−ABSstart)/(ABScontrol−ABSstart)]×100·(ABS=absorption)
In general, compounds of the invention have IC50 values from 1 nM to 10 μM. In some examples, compounds of the invention have IC50 values from 0.01 μM to 5 μM. In other examples, compounds of the invention have IC50 values from 0.01 μM to 1 μM, or more particularly from 1 nM to 1 μM.
Table 1 describes representative compounds of the invention, prepared following the procedures described above. IC50 values are as measured in an NPM-ALK BaF3 assay.

T1 sequence (Q9UM73 with tags, fused parts or gaps): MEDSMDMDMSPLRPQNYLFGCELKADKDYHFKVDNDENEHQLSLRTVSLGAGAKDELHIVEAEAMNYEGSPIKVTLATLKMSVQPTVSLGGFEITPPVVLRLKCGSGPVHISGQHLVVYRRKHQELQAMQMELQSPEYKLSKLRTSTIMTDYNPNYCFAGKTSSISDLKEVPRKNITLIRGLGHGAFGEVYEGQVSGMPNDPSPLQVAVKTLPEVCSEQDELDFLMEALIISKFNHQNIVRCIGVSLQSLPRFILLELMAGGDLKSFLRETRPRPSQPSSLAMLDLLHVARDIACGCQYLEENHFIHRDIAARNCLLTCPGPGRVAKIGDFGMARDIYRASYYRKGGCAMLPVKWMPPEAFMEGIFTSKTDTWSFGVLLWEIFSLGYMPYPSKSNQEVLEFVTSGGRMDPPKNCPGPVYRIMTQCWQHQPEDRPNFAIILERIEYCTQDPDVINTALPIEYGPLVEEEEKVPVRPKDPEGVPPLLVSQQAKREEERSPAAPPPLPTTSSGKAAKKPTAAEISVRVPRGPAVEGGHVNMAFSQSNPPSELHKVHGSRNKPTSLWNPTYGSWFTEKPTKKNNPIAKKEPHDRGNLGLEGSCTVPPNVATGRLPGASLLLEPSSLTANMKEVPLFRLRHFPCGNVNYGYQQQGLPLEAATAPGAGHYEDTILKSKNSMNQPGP

`CNC(C)(C)C(=O)N1CCC(c2cc(OC)c(Nc3nc(Nc4ccccc4S(=O)(=O)C(C)C)n4nccc4n3)cc2C)CC1` [Ex 27] gave an IC50 of 44 nM. This lies in the double-digit nanomolar range.

In turn, `COc1cc(C2CCN(C(=O)C3CCCCN3)CC2)c(C)cc1Nc1nc(Nc2ccccc2S(=O)(=O)C(C)C)n2nccc2n1` (stereo not shown) [Ex 29] showed an IC50 of 54 nM.

The compound `COc1cc(C2CCN(C(=O)C3CCCN3)CC2)c(C)cc1Nc1nc(Nc2ccccc2S(=O)(=O)C(C)C)n2nccc2n1` (stereo not shown) [Ex 31] gave an IC50 of 36 nM.

Compound `COc1cc(C2CCN(C(=O)C3COCCN3)CC2)c(C)cc1Nc1nc(Nc2ccccc2S(=O)(=O)C(C)C)n2nccc2n1` (stereo not shown) [Ex 32] showed an IC50 of 29 nM.

As to `COc1cc(C2CCN(C(=O)C3CCCN3C)CC2)c(C)cc1Nc1nc(Nc2ccccc2S(=O)(=O)C(C)C)n2nccc2n1` (stereo not shown) [Ex 34], the IC50 worked out at 25 nM.

`CC(C)S(=O)(=O)c1ccccc1Nc1nc(Nc2ccc(C3CCNCC3)cc2)nc2ccnn12` [Ex 37]: the midpoint of inhibition, the IC50, lay at 130 nM.

Turning to `CC(C)S(=O)(=O)c1ccccc1Nc1nc(Nc2ccc3c(c2)CN(CCS(C)(=O)=O)CC3)nc2ccnn12` [Ex 39], it took 464 nM to reach half-maximal inhibition (IC50).

Consider `CC(C)S(=O)(=O)c1ccccc1Nc1nc(Nc2ccc3c(c2)CCN(CCS(C)(=O)=O)C3)nc2ccnn12` [Ex 40], for which 136 nM corresponded to half-maximal inhibition (IC50).

Regarding `CC(C)S(=O)(=O)c1ccccc1Nc1nc(Nc2ccc3c(c2)CCNC3)nc2ccnn12` [Ex 41], the IC50 is 85 nM.

`CC(C)S(=O)(=O)c1ccccc1Nc1nc(Nc2ccc3c(c2)CNCC3)nc2ccnn12` [Ex 42] yielded an IC50 of 1020 nM.

The compound `COc1cc(C2CCN(C(=O)CNC[C@@H](O)CO)CC2)c(C)cc1Nc1nc(Nc2ccccc2S(=O)(=O)C(C)C)n2nccc2n1` [Ex 43] showed an IC50 of 150 nM.

`CN[C@H](C)C(=O)N1CCC(c2cc(OC)c(Nc3nc(Nc4ccccc4S(=O)(=O)C(C)C)n4nccc4n3)cc2C)CC1` [Ex 44] returned an IC50 of 18 nM.

For `Cc1cc(C2CCN(CCS(C)(=O)=O)CC2)c(C)cc1Nc1nc(Nc2ccccc2S(=O)(=O)C(C)C)n2nccc2n1` [Ex 45], the IC50 turned out to be 62 nM.

As for `Cc1cc(C2CCN(CCS(C)(=O)=O)CC2)ccc1Nc1nc(Nc2ccccc2S(=O)(=O)C(C)C)n2nccc2n1` [Ex 46], the IC50 came out at 31 nM.

`Cc1cc(Nc2nc(Nc3ccccc3S(=O)(=O)C(C)C)n3nccc3n2)ccc1C1CCN(CCS(C)(=O)=O)CC1` [Ex 47] had an IC50 of 46 nM.

In turn, `Cc1cc(C2CCN(C(=O)CCN(C)C)CC2)c(C)cc1Nc1nc(Nc2ccccc2S(=O)(=O)C(C)C)n2nccc2n1` [Ex 48] came in with an IC50 of 59 nM.

As for `Cc1cc(C2CCN(C(=O)CCN(C)C)CC2)ccc1Nc1nc(Nc2ccccc2S(=O)(=O)C(C)C)n2nccc2n1` [Ex 49], half-maximal inhibition (IC50) was put at 129 nM.

With `COc1cc(C2CCN(C(=O)[C@@H]3C[C@@H](O)CN3C)CC2)c(C)cc1Nc1nc(Nc2ccccc2S(=O)(=O)C(C)C)n2nccc2n1` [Ex 50], half-maximal inhibition (IC50) was put at 52 nM.

With `COc1cc(C2CCN(C(=O)[C@@H]3C[C@H](F)CN3)CC2)c(C)cc1Nc1nc(Nc2ccccc2S(=O)(=O)C(C)C)n2nccc2n1` [Ex 54], 42 nM corresponded to half-maximal inhibition (IC50).

Take `COc1cc(C2CCN(C(=O)[C@@H]3C[C@H](O)CN3)CC2)c(C)cc1Nc1nc(Nc2ccccc2S(=O)(=O)C(C)C)n2nccc2n1` [Ex 55]: the IC50 was determined as 63 nM. Against the preceding compound, the IC50 is about 1.5-fold higher.

`COc1cc(C2CCN(C(=O)[C@H]3C[C@@H](O)CN3)CC2)c(C)cc1Nc1nc(Nc2ccccc2S(=O)(=O)C(C)C)n2nccc2n1` [Ex 56] returned an IC50 of 79 nM.

Compound `COc1cc(C2CCN(C(=O)CNC(C)C)CC2)c(C)cc1Nc1nc(Nc2ccccc2S(=O)(=O)C(C)C)n2nccc2n1` [Ex 57] returned an IC50 of 32 nM. Against the preceding compound, the IC50 is about 2.5-fold lower.

As for `COc1cc(C2CCN(C(=O)CNCCO)CC2)c(C)cc1Nc1nc(Nc2ccccc2S(=O)(=O)C(C)C)n2nccc2n1` [Ex 58], the IC50 was 86 nM.

The compound `COc1cc(C2CCN(C(=O)CN3CC(O)C3)CC2)c(C)cc1Nc1nc(Nc2ccccc2S(=O)(=O)C(C)C)n2nccc2n1` [Ex 59] showed an IC50 of 193 nM. Compared with the last compound, the IC50 is about 2.2-fold higher.

As for `COc1cc(C2CCN(C(=O)CN3CC[C@@H](O)C3)CC2)c(C)cc1Nc1nc(Nc2ccccc2S(=O)(=O)C(C)C)n2nccc2n1` [Ex 60], half-maximal inhibition (IC50) was put at 31 nM.

Regarding `COc1cc(C2CCN(C(=O)[C@H](C)N3CCC3)CC2)c(C)cc1Nc1nc(Nc2ccccc2S(=O)(=O)C(C)C)n2nccc2n1` [Ex 61], the IC50 is 34 nM.

In turn, `COc1cc(C2CCN(C(=O)CN3CC[C@@H](F)C3)CC2)c(C)cc1Nc1nc(Nc2ccccc2S(=O)(=O)C(C)C)n2nccc2n1` [Ex 62] returned an IC50 of 58 nM.

Take `COc1cc(C2CCN(C(=O)CNC(C)(C)C)CC2)c(C)cc1Nc1nc(Nc2ccccc2S(=O)(=O)C(C)C)n2nccc2n1` [Ex 63]: half-maximal inhibition (IC50) was put at 53 nM.

Compound `COc1cc(C2CCN(C(=O)[C@H](C)NC(C)C)CC2)c(C)cc1Nc1nc(Nc2ccccc2S(=O)(=O)C(C)C)n2nccc2n1` [Ex 64] displayed an IC50 of 28 nM.

In the case of `COc1cc(C2CCN(C(=O)[C@H](C)NCCO)CC2)c(C)cc1Nc1nc(Nc2ccccc2S(=O)(=O)C(C)C)n2nccc2n1` [Ex 65], the IC50 was determined as 37 nM.

Regarding `COc1cc(C2CCN(C(=O)[C@H](C)N(C)C)CC2)c(C)cc1Nc1nc(Nc2ccccc2S(=O)(=O)C(C)C)n2nccc2n1` [Ex 66], inhibition was half-maximal at 32 nM (IC50).

`COc1cc(C2CCN(C(=O)[C@H](C)N)CC2)c(C)cc1Nc1nc(Nc2ccccc2S(=O)(=O)C(C)C)n2nccc2n1` [Ex 67] yielded an IC50 of 40 nM.

`COc1cc(C2CCN(C(=O)CN)CC2)c(C)cc1Nc1nc(Nc2ccccc2S(=O)(=O)C(C)C)n2nccc2n1` [Ex 68] displayed a half-maximal inhibitory concentration (IC50) of 17 nM.

Compound `COc1cc(C2CCN(C(=O)[C@@H](N)CO)CC2)c(C)cc1Nc1nc(Nc2ccccc2S(=O)(=O)C(C)C)n2nccc2n1` [Ex 69] gave an IC50 of 59 nM. This IC50 is about 3.5-fold higher than that of the compound before.

For the compound `COc1cc(C2CCN(C(=O)[C@H]3COCCN3)CC2)c(C)cc1Nc1nc(Nc2ccccc2S(=O)(=O)C(C)C)n2nccc2n1` [Ex 70, (R)-(4-(4-(4-(2-(isopropylsulfonyl)phenylamino)pyrazolo[1,5-a][1,3,5]triazin-2-ylamino)-5-methoxy-2-methylphenyl)piperidin-1-yl)(morpholin-3-yl)methanone], the IC50 came to 35 nM.

Compound `COc1cc(C2CCN(C(=O)[C@@H]3COCCN3)CC2)c(C)cc1Nc1nc(Nc2ccccc2S(=O)(=O)C(C)C)n2nccc2n1` [Ex 71] registered an IC50 of 22 nM. This IC50 lies about 1.6-fold lower than the previous one.

For the compound `COc1cc(C2CCN(C(=O)CCCN(C)C)CC2)c(C)cc1Nc1nc(Nc2ccccc2S(=O)(=O)C(C)C)n2nccc2n1` [Ex 72], the IC50 worked out at 58 nM.

As for `COc1cc(C2CCN(C(=O)CO)CC2)c(C)cc1Nc1nc(Nc2ccccc2S(=O)(=O)C(C)C)n2nccc2n1` [Ex 73], the IC50 was found to be 40 nM.

Consider `COCCNCC(=O)N1CCC(c2cc(OC)c(Nc3nc(Nc4ccccc4S(=O)(=O)C(C)C)n4nccc4n3)cc2C)CC1` [Ex 74], for which the IC50 stood at 28 nM.

Regarding `COc1cc(C2CCN(C(=O)CN3CC[C@H](F)C3)CC2)c(C)cc1Nc1nc(Nc2ccccc2S(=O)(=O)C(C)C)n2nccc2n1` [Ex 76], it took 75 nM to reach half-maximal inhibition (IC50).

The compound `COc1cc(C2CCN(C(=O)CN3CC[C@H](O)C3)CC2)c(C)cc1Nc1nc(Nc2ccccc2S(=O)(=O)C(C)C)n2nccc2n1` [Ex 77] had an IC50 of 36 nM.

For `COc1cc(C2CCN(C(=O)[C@H](C)N3CC[C@H](O)C3)CC2)c(C)cc1Nc1nc(Nc2ccccc2S(=O)(=O)C(C)C)n2nccc2n1` [Ex 78], the IC50 came to 36 nM.

`COc1cc(C2CCN(C(=O)[C@H](C)N3CC[C@@H](O)C3)CC2)c(C)cc1Nc1nc(Nc2ccccc2S(=O)(=O)C(C)C)n2nccc2n1` [Ex 79] showed an IC50 of 38 nM. This IC50 and that of the compound before are within 1.5-fold of each other.

One may read the IC50 as the concentration needed to halve the response being measured. Read a high IC50 as weaker potency in that assay.
